Assay results as given in ChEMBL document CHEMBL1122102, “Hydrogen bonding and anesthetic potency” (J Med Chem, 1982).

Experiments:
[1] = Partition coefficient was determined in oil/gas system and value was reported; assay type: ADME
Canis familiaris = assay: Evaluated in vitro for anesthetic activity in dog and minimum alveolar concentration (MAC) was determined; assay type: functional, Canis lupus familiaris; set-up: unit not given here
Homo sapiens = assay: Evaluated in vitro for anesthetic activity in man and minimum alveolar concentration (MAC) was determined; assay type: functional; set-up: unit not given here
Mus musculus = assay: Evaluated in vitro for anesthetic activity in mice and ED50 value was reported; assay type: functional

## FC(F)OC(F)(F)C(F)Cl (stereo not drawn)
[1]
  Partition coefficient: 98
Canis familiaris
  MAC: 2.06
Homo sapiens
  MAC: 1.68

## ClC(Cl)Cl [CHLOROFORM]
Canis familiaris
  MAC: 0.77
Homo sapiens
  MAC: 0.5
Mus musculus
  ED50: 0.84

## FC(F)(F)C(Cl)Br (stereo not drawn) [HALOTHANE]
[1]
  Partition coefficient: 220
Canis familiaris
  MAC: 0.87
Homo sapiens
  MAC: 0.74
Mus musculus
  ED50: 0.77

## FC(F)OC(Cl)C(F)(F)F (stereo not drawn) [ISOFLURANE]
[1]
  Partition coefficient: 97
Canis familiaris
  MAC: 1.28
Homo sapiens
  MAC: 1.15
Mus musculus
  ED50: 0.57

## COC(F)(F)C(Cl)Cl [METHOXYFLURANE]
[1]
  Partition coefficient: 950
Canis familiaris
  MAC: 0.24
Homo sapiens
  MAC: 0.16
Mus musculus
  ED50: 0.22
